Source: ChEMBL document CHEMBL3044635, “Effect of propiconazole and difenoconazole on the control of anthracnose of chilli fruits caused by Colletotrichum capsici” (Crop Prot, 2006)
Values after ≈ are worked out from the molar mass of the structure shown.

Experiments:
[1] = system: Colletotrichum truncatum; experiment: Fungicidal activity against Colletotrichum capsici assessed as mycelial biomass at 10 ug/ml incubated 16 hr photoperiod for 20 days (reference value: 675 mg); assay type: functional
[2] = system: Colletotrichum truncatum; experiment: Fungicidal activity against Colletotrichum capsici assessed as spore germination at 1 ug/ml after 48 to 96 hr (reference value: 70.2 CFU); assay type: functional
[3] = system: Colletotrichum truncatum; experiment: Fungicidal activity against Colletotrichum capsici assessed as mycelial biomass at 0.1 ug/ml incubated 16 hr photoperiod for 20 days (reference value: 675 mg); assay type: functional
[4] = system: Colletotrichum truncatum; experiment: Fungicidal activity against Colletotrichum capsici infected chilli plant assessed as percent disease index at 0.025% applied as spray on day 10 post inoculation and twice every 20 days measured on day 155 post sowing in field conditions (reference value: 51 to 56.5%); assay type: functional
[5] = system: Colletotrichum truncatum; experiment: Fungicidal activity against Colletotrichum capsici assessed as sporulation at 0.5 ug/ml incubated 16 hr photoperiod for 20 days by haemocytometer (reference value: 0.081 x 10^6 ml'-1); assay type: functional
[6] = system: Colletotrichum truncatum; experiment: Fungicidal activity against Colletotrichum capsici assessed as sporulation at 50 ug/ml incubated 16 hr photoperiod for 20 days by haemocytometer (reference value: 0.081 x 10^6 ml'-1); assay type: functional
[7] = system: Colletotrichum truncatum; experiment: Fungicidal activity against Colletotrichum capsici infected chilli plant assessed as fruit length measured per plot at 0.05% applied as spray on day 10 post inoculation and twice every 20 days measured on day 155 post sowing in field conditions (reference value: 8 to 8.7 cm); assay type: functional
[8] = system: Colletotrichum truncatum; experiment: Fungicidal activity against Colletotrichum capsici infected chilli plant assessed as percent disease index at 0.05% applied as spray on day 10 post inoculation and twice every 20 days measured on day 155 post sowing in field conditions (reference value: 51 to 56.5%); assay type: functional
[9] = system: Colletotrichum truncatum; experiment: Fungicidal activity against Colletotrichum capsici assessed as reduction of polygalacturonase production at 1 ug/ml incubated for 10 days measured up to 120 min by Ostwald-Fenske viscometric analysis (reference value: 45.3%); assay type: functional; design: scale not given: the % may be the effect or the level left
[10] = system: Colletotrichum truncatum; experiment: Fungicidal activity against Colletotrichum capsici assessed as spore germination at 25 ug/ml after 48 to 96 hr (reference value: 70.2 CFU); assay type: functional
[11] = system: Colletotrichum truncatum; experiment: Fungicidal activity against Colletotrichum capsici assessed as reduction of polygalacturonase trans-eliminase production at 1 ug/ml incubated for 10 days measured up to 120 min by Ostwald-Fenske viscometric analysis (reference value: 40.8%); assay type: functional; design: scale not given: the % may be the effect or the level left
[12] = system: Colletotrichum truncatum; experiment: Fungicidal activity against Colletotrichum capsici assessed as inhibition of mycelial growth; assay type: functional; conditions: Colletotrichum truncatum; read-out: ED50 (the source's name)
[13] = system: Colletotrichum truncatum; experiment: Fungicidal activity against Colletotrichum capsici assessed as linear growth at 1 ug/ml incubated 16 hr photoperiod for 20 days (reference value: 90 mm); assay type: functional
[14] = system: Colletotrichum truncatum; experiment: Fungicidal activity against Colletotrichum capsici infected chilli plant assessed as fruit length at 0.05% applied as spray on day 10 post inoculation and twice every 20 days measured on day 155 post sowing in green house conditions (reference value: 6.8 to 7 cm); assay type: functional
[15] = system: Colletotrichum truncatum; experiment: Fungicidal activity against Colletotrichum capsici assessed as spore germination at 0.5 ug/ml after 48 to 96 hr (reference value: 70.2 CFU); assay type: functional
[16] = system: Colletotrichum truncatum; experiment: Fungicidal activity against Colletotrichum capsici infected chilli plant assessed as fruit length at 0.025% applied as spray on day 10 post inoculation and twice every 20 days measured on day 155 post sowing in green house conditions (reference value: 6.8 to 7 cm); assay type: functional
[17] = system: Colletotrichum truncatum; experiment: Fungicidal activity against Colletotrichum capsici assessed as linear growth at 5 ug/ml incubated 16 hr photoperiod for 20 days (reference value: 90 mm); assay type: functional
[18] = system: Colletotrichum truncatum; experiment: Fungicidal activity against Colletotrichum capsici assessed as spore germination at 50 ug/ml after 48 to 96 hr (reference value: 70.2 CFU); assay type: functional
[19] = system: Colletotrichum truncatum; experiment: Fungicidal activity against Colletotrichum capsici assessed as mycelial biomass at 25 ug/ml incubated 16 hr photoperiod for 20 days (reference value: 675 mg); assay type: functional
[20] = system: Colletotrichum truncatum; experiment: Fungicidal activity against Colletotrichum capsici assessed as mycelial biomass at 0.5 ug/ml incubated 16 hr photoperiod for 20 days (reference value: 675 mg); assay type: functional
[21] = system: Capsicum annuum; experiment: Phytotoxicity in Capsicum annuum (pepper) at 0.1% applied as spray; assay type: organism-based; conditions: in vivo, other
[22] = system: Colletotrichum truncatum; experiment: Fungicidal activity against Colletotrichum capsici assessed as linear growth at 0.1 ug/ml incubated 16 hr photoperiod for 20 days (reference value: 90 mm); assay type: functional
[23] = system: Colletotrichum truncatum; experiment: Fungicidal activity against Colletotrichum capsici assessed as sporulation at 10 ug/ml incubated 16 hr photoperiod for 20 days by haemocytometer (reference value: 0.081 x 10^6 ml'-1); assay type: functional
[24] = system: Colletotrichum truncatum; experiment: Fungicidal activity against Colletotrichum capsici assessed as sporulation at 1 ug/ml incubated 16 hr photoperiod for 20 days by haemocytometer (reference value: 0.081 x 10^6 ml'-1); assay type: functional
[25] = system: Colletotrichum truncatum; experiment: Fungicidal activity against Colletotrichum capsici assessed as sporulation at 0.1 ug/ml incubated 16 hr photoperiod for 20 days by haemocytometer (reference value: 0.081 x 10^6 ml'-1); assay type: functional
[26] = system: Colletotrichum truncatum; experiment: Fungicidal activity against Colletotrichum capsici infected chilli plant assessed as fruit length measured per plot at 0.025% applied as spray on day 10 post inoculation and twice every 20 days measured on day 155 post sowing in field conditions (reference value: 8 to 8.7 cm); assay type: functional
[27] = system: Colletotrichum truncatum; experiment: Fungicidal activity against Colletotrichum capsici assessed as linear growth at 50 ug/ml incubated 16 hr photoperiod for 20 days (reference value: 90 mm); assay type: functional
[28] = system: Colletotrichum truncatum; experiment: Fungicidal activity against Colletotrichum capsici assessed as sporulation at 5 ug/ml incubated 16 hr photoperiod for 20 days by haemocytometer (reference value: 0.081 x 10^6 ml'-1); assay type: functional
[29] = system: Colletotrichum truncatum; experiment: Fungicidal activity against Colletotrichum capsici assessed as spore germination at 10 ug/ml after 48 to 96 hr (reference value: 70.2 CFU); assay type: functional
[30] = system: Colletotrichum truncatum; experiment: Fungicidal activity against Colletotrichum capsici infected chilli plant assessed as fruit mass measured per pot at 0.025% applied as spray on day 10 post inoculation and twice every 20 days measured on day 155 post sowing in green house conditions (reference value: 85.3 to 94.5 g); assay type: functional
[31] = system: Colletotrichum truncatum; experiment: Fungicidal activity against Colletotrichum capsici infected chilli plant assessed as percent disease index at 0.025% applied as spray on day 10 post inoculation and twice every 20 days measured on day 155 post sowing in green house conditions (reference value: 62.5 to 68.6%); assay type: functional
[32] = system: Colletotrichum truncatum; experiment: Fungicidal activity against Colletotrichum capsici assessed as reduction of pectin trans-eliminase production at 1 ug/ml incubated for 10 days measured up to 120 min by Ostwald-Fenske viscometric analysis (reference value: 38.5%); assay type: functional; design: scale not given: the % may be the effect or the level left
[33] = system: Colletotrichum truncatum; experiment: Fungicidal activity against Colletotrichum capsici assessed as linear growth at 25 ug/ml incubated 16 hr photoperiod for 20 days (reference value: 90 mm); assay type: functional
[34] = system: Colletotrichum truncatum; experiment: Fungicidal activity against Colletotrichum capsici assessed as linear growth at 0.5 ug/ml incubated 16 hr photoperiod for 20 days (reference value: 90 mm); assay type: functional
[35] = system: Colletotrichum truncatum; experiment: Fungicidal activity against Colletotrichum capsici assessed as mycelial biomass at 50 ug/ml incubated 16 hr photoperiod for 20 days (reference value: 675 mg); assay type: functional

CCCC1COC(Cn2cncn2)(c2ccc(Cl)cc2Cl)O1 (stereo not given) [PROPICONAZOLE]
Activity [1]: 0 mg
CFU [2]: 3.3
Activity [3]: 410 mg
PDI [4]: 30.6%
Activity [5]: 1.3 ×10⁶ /ml
Activity [6]: 0 ×10⁶ /ml
Activity [7]: 9.2 cm
PDI [8]: 20.5%
Activity [9]: 9.2%
CFU [10]: 0
Activity [11]: 8.5%
EC50 [12]: 0.19 µg/mL (≈ 0.555 µM)
Activity [13]: 20.5 mm
Activity [14]: 7.8 cm
CFU [15]: 15.5
Activity [16]: 7.1 cm
Activity [17]: 12.61 mm
CFU [18]: 0
Activity [19]: 0 mg
Activity [20]: 240 mg
Activity [21]: Non-toxic
Activity [22]: 55.3 mm
Activity [23]: 0 ×10⁶ /ml
Activity [24]: 0.33 ×10⁶ /ml
Activity [25]: 2.83 ×10⁶ /ml
Activity [26]: 8.5 cm
Activity [27]: 9 mm
Activity [28]: 0 ×10⁶ /ml
CFU [29]: 0
Crop_yield [30]: 112.8 g
PDI [31]: 33%
Activity [32]: 12%
Activity [33]: 9 mm
Activity [34]: 39.2 mm
Activity [35]: 0 mg

CC1COC(Cn2cncn2)(c2ccc(Oc3ccc(Cl)cc3)cc2Cl)O1 (stereo not given) [DIFENOCONAZOLE]
Activity [1]: 47 mg
CFU [2]: 7.8
Activity [3]: 465 mg
PDI [4]: 33%
Activity [5]: 2.25 ×10⁶ /ml
Activity [6]: 0 ×10⁶ /ml
Activity [7]: 9.2 cm
PDI [8]: 22%
Activity [9]: 12%
CFU [10]: 0
Activity [11]: 12.5%
EC50 [12]: 0.15 µg/mL (≈ 0.369 µM)
Activity [13]: 39.3 mm
Activity [14]: 7.5 cm
CFU [15]: 22.4
Activity [16]: 7 cm
Activity [17]: 27.4 mm
CFU [18]: 0
Activity [19]: 0 mg
Activity [20]: 350 mg
Activity [21]: Toxic
Activity [22]: 73.5 mm
Activity [23]: 0 ×10⁶ /ml
Activity [24]: 1.02 ×10⁶ /ml
Activity [25]: 3.25 ×10⁶ /ml
Activity [26]: 8.2 cm
Activity [27]: 9 mm
Activity [28]: 0.37 ×10⁶ /ml
CFU [29]: 0
Crop_yield [30]: 100.6 g
PDI [31]: 34.5%
Activity [32]: 15.6%
Activity [33]: 9 mm
Activity [34]: 48.5 mm
Activity [35]: 0 mg
